One test relates to K695sw cells. In words: Pulse-chase labeling and immunoprecipitation of chase media and cell lysates (APP processing). The test is classed as cell-based, human. The method, then:
We first set out to reproduce the published results of Higaki et al. (1995) Neuron, 14:651-659 on the action of the compound MDL 28170 on APP processing, using human kidney 293 cells stably expressing APP695 with the Swedish FAD mutation (K695sw cells). Our experiments were done using a pulse-chase paradigm: K695sw cells were labeled for 2 hours with 35S-methionine and then chased for 2 hours in the presence of 200 μM MDL 28170. Aliquots of the chase media from treated and untreated cells were subjected to SDS-PAGE.
To address this question, we performed pulse-chase experiments on K695sw cells using different doses of MDL 28170, followed by sequential immunoprecipitation of the same media first with 21F12, a monoclonal antibody raised against amino acids 33-42 of Aβ (described above) which specifically precipitates Aβ peptides ending at position 42, and then with antibody 1282 which precipitates all forms of Aβ and p3 (Haass et al., (1992b) Nature 359:322-325) (FIG. 4A). […] Using MDL 28170 at 200 μM, the experiment was repeated four times and the results were quantitated by phosphorimaging (FIG. 4B).
All transfected cell lines described here carry derivatives of pCMV695, a plasmid carrying APP695 under control of the CMV promoter (Selkoe, (1988) Proc. Natl. Acad. Sci. 85:7341-7345) K695sw are human embryonic kidney 293 cells stably transfected with a construct carrying the AD-linked double (“Swedish”) mutation K595N/M596L (Citron et al. (1992) Nature, 360:672-674); K695717I are 293 cells stably transfected with APP695 carrying the mutation V717I (valine to isoleucine at position 717 in the APP770 numbering system). CHO695 are Chinese hamster ovary cells (CHO) stably transfected with pCMV695 (Oltersdorf (1990) J. Biol. Chem. 265:4432-4437) SKN695 are SK-N-SH human neuroblastoma cells stably transfected with pCMV695.
To analyze the effect of MDL 28170 on the processing of APP, cells were grown to confluence in two 10 cm dishes, pulse-labeled with 600 μCi of [^35S]-methionine in 4 ml of serum-free medium for 2 hours and then chased for 2 hours with 4 ml medium containing 10% fetal bovine serum and the indicated final concentration of MDL 28170 (initially dissolved at 200 mM. in DMSO). Control dishes were treated with DMSO alone.
Conditioned media and cell lysates were analyzed by immunoprecipitation, as described (Haass, et al. (1992) Nature 359:322-325). Polyclonal antibody R1736 to residues 595-611 of APP695 was used to precipitate α-APPs (Haass, (1994) J. Biol. Chem. 269:17741-17748). This antibody recognizes an epitope that is specific for the free COOH-terminus of α-cleaved APPs. Polyclonal antibody R1282 was generated to synthetic Aβ1-40 (Haass, et al. (1992) Nature 359:322-325). […]

The subject of another test is total Aβ and total p3. The conditions noted are these: literature; cited from earlier work.

Where a SMILES comes first, the peptide text is derived from it. The star is where a group is joined. Cbz = O=C(OCc1ccccc1)*

For the compound `CC(C)[C@H](NC(=O)OCc1ccccc1)C(=O)N[C@H](C=O)Cc1ccccc1` [MDL 28170] (Cbz-Val-Phe-aldehyde), in the test with K695sw cells (200 μM during 2 h chase), the “β-secretase activity (β-cleaved APPs, antibody 192sw immunoprecipitation)” value was “does not significantly inhibit”.

Consider `CCCC(=O)O[C@@H]1[C@@H](C)[C@@]2(O)[C@@H](C=C(CO)C[C@]3(O)C(=O)C(C)=C[C@@H]23)[C@@H]2C(C)(C)[C@]12OC(=O)CCC` [PDBu], for which, in the test on K695sw cells (1 μM PDBu, 2 h pulse 2 h chase), the “Aβ(42) (antibody 21F12)” value is recorded as “decreases”, the “p3(42) (antibody 21F12)” value is listed as “increase” and the “total Aβ (subsequent R1282)” value is on record as “decreases”. In the test with total Aβ and total p3, the “total Aβ” value is listed as “decrease” and the “total p3” value is given as “increase”.
